In US4607047A, “N-(allyl-2-pyrrolidinylmethyl) 2-methoxy-4-amino-5-methylsulfamoyl benzamide anti platelets aggregation agent” (Societe d'Etudes Scientifiques et Industrielles de …, priority 1983, dated 1986):

Tests used:
alpha-2 receptors = target: T1, alpha-2 receptors (Oryctolagus cuniculus, UniProt Q5ZQK3); test: potentiation (induced by CLONIDINE) of platelet aggregation caused by adenosinephosphate; type: cell-based, rabbits; settings: rabbit platelets
T1 construct: potentiation (induced by CLONIDINE) of platelet aggregation caused by adenosinephosphate; endogenous in cells; host or cells: rabbit blood platelets
T1 sequence (Q5ZQK3 1-451): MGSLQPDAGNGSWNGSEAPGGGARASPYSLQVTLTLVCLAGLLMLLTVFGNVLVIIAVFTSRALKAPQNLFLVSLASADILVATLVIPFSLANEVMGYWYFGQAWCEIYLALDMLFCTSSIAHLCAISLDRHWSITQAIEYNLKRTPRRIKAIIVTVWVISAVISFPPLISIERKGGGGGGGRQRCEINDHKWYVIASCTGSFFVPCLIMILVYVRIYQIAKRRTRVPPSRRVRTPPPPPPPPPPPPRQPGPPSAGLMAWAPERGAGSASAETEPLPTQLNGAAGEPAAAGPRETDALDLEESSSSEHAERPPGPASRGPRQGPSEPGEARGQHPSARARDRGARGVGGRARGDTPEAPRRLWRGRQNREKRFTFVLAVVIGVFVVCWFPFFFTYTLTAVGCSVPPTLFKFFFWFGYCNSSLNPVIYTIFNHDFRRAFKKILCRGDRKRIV
Description: (§1) The following pharmacological results illustrate the activity of the compound on platelet aggregation, the potentiation of such aggregation, the uptake of serotonin (the chemical name for which is 5-hydroxytryptamine) by the platelets and the release reaction of such platelets.

[1] = target: T2, alpha-2 receptors (Oryctolagus cuniculus); test: as above; type: cell-based, rabbits; settings: rabbit platelets; read-out: IC50, anti-adrenergic effect (potentiation induced by CLONIDINE of platelet aggregation caused by adenosinephosphate)
T2 construct: potentiation (induced by CLONIDINE) of platelet aggregation caused by adenosinephosphate; endogenous in cells; host or cells: rabbit blood platelets
Description: as §1

human platelets [2] = test: aggregation induced by 5-hydroxytryptamine, human platelets in vitro; type: cell-based
Protocol: (§2) All those results agreeing, the following study was carried on human platelets in vitro, before proceeding to therapeutic applications. It relates to the effects of the compound according to the invention, in regard to aggregation induced by thrombin, collagen, adrenaline, and 5-hydroxytryptamine, and with regard to the release of carbon 14-marked 5-hydroxytryptamine, by thrombin, adrenaline and collagen.

human platelets [3] = test: aggregation induced by adrenaline, human platelets in vitro; type: cell-based
Protocol: as §2

vascular thrombus = test: in vivo formation of a caused vascular thrombus; settings: animals
human platelets [4] = test: release of marked 5-hydroxytryptamine induced by collagen, human platelets; type: cell-based; settings: human platelets in vitro
Protocol: as §2

platelets [5] = test: potentiation (induced by 5-hydroxytryptamine) of platelet aggregation caused by adenosinephosphate; type: cell-based, rabbits; settings: rabbit platelets
Protocol: as §1, with “platelets. This study was carried out on rabbits:” for “platelets.”
It is 63 times less powerful than METHYSERGIDE as a 5-hydroxytryptamine antagonist.

platelets [6] = test: uptake of carbon 14-marked 5-hydroxytryptamine by platelets; type: cell-based; settings: Oryctolagus cuniculus, Platelet; rabbit platelets
Description: as §1

human platelets [7] = test: platelet release reaction induced by adrenaline, human platelets; type: cell-based; settings: human platelets in vitro; witnessed by inhibition of second phase of aggregation
Protocol: as §2

[8] = test system: central dopaminergic receptors; test: action on central dopaminergic receptors; apomorphine climbing and stereotypies; type: in vivo, rodents
Description: Although under those conditions the pathogenetic role of platelet dysfunction has not been definitively established, various medicaments which are assumed to act by interfering with the platelet function have been widely used. Reference may be made for example to aspirin, dipyridamole and sulphinpyrazone. […] It can be said therefore that the undesirable neurological effects are very limited with that medicament.

human platelets [9] = test: release of carbon 14-marked 5-hydroxytryptamine induced by thrombin, human platelets; type: cell-based; settings: human platelets in vitro
Protocol: as §2

human platelets [10] = test: uptake of carbon 14-marked 5-hydroxytryptamine, human platelets in vitro; type: cell-based
human platelets [11] = test: aggregation induced by thrombin, human platelets in vitro; type: cell-based; settings: thrombin 3.3 units/ml PRP
Protocol: as §2

platelets [12] = test: potentiation (induced by adrenaline) of platelet aggregation caused by adenosinephosphate; type: cell-based, rabbits; settings: rabbit platelets
Protocol: as §1, with “platelets. This study was carried out on rabbits:” for “platelets.”
It is 20 times less powerful than PHENTOLAMINE as an adrenaline antagonist.

rabbit platelets = test: release of carbon 14-marked 5-hydroxytryptamine induced by adrenaline; type: cell-based; settings: Oryctolagus cuniculus, Platelet, read-out: IC50, inhibition of release of carbon 14-marked 5-hydroxytryptamine induced by adrenaline
Description: as §1

platelets [13] = test: platelet aggregation induced by collagen; type: cell-based, rabbits; settings: rabbit platelets
Protocol: as §1, with “platelets. This study was carried out on rabbits:” for “platelets.”
(§3) The compound counteracts the action of collagen on the platelets.
a. prolongation of the typical latency phase which precedes aggregation of the platelets induced by collagen,
b. inhibition of the aggregation effect induced by collagen, and […]

platelets [14] = test: platelet aggregation caused by adenosine phosphate; type: cell-based; settings: in vitro, rabbits
Protocol: as §1, with “platelets. This study was carried out on rabbits:” for “platelets.”
An inhibiting effect on the aggregation of platelets, caused by adenosine phosphate is observed.

platelets [15] = test: release of carbon 14-marked 5-hydroxytryptamine induced by collagen; type: cell-based, rabbits; settings: rabbit platelets
Protocol: as §1, with “platelets. This study was carried out on rabbits:” for “platelets.”
as §3
The compound of the invention is 13 times more powerful than aspirin, which is well known for inhibiting the platelet release reaction.

human platelets [16] = test: aggregation induced by collagen, human platelets in vitro; type: cell-based
Protocol: as §2

Structure (SMILES): C=CCN1CCCC1CNC(=O)c1cc(S(=O)(=O)NC)c(N)cc1OC (stereo not shown) [the compound, N-(1-allyl-2-pyrrolidinylmethyl) 2-methoxy 4-amino 5-methylsulphamoyl benzamide]
- activity relative to MIANSERINE as an alpha-2 antagonist (alpha-2 receptors): twice as active
- IC50 [1]: 29.5 µM
- aggregation of platelets induced by 5-hydroxytryptamine (human platelets [2]): inhibits
- first and second phases of aggregation of platelets induced by adrenaline (human platelets [3]): inhibits both
- conditions of formation of a caused vascular thrombus (anti-aggregating effect) (vascular thrombus): modifies the conditions of formation
- release of marked 5-hydroxytryptamine induced by collagen (human platelets [4]): inhibits
- IC50 (platelets [5]; Oryctolagus cuniculus, Platelet, read-out: IC50, inhibition of potentiation (induced by 5-hydroxytryptamine) of platelet aggregation caused by adenosinephosphate): 19 µM
- times less powerful than METHYSERGIDE as a 5-hydroxytryptamine antagonist (platelets [5]): 63 times
- IC50 (platelets [6]): > 100 µM
- release reaction of the platelets induced by adrenaline (human platelets [7]): inhibits
- action on the central dopaminergic receptors ([8]; animals): only a very weak action
- doses to counteract apomorphine effects (climbing and stereotypies) ([8]; rodents): high doses are required
- release of carbon 14-marked 5-hydroxytryptamine induced by thrombin (human platelets [9]): inhibits
- uptake of carbon 14-marked 5-hydroxytryptamine by platelets (human platelets [10]): does not influence
- primary aggregation of platelets induced by thrombin (human platelets [11]): does not influence
- second phase of aggregation induced by thrombin (human platelets [11]): inhibits
- IC50 (platelets [12]; Oryctolagus cuniculus, Platelet, read-out: IC50, inhibition of potentiation (induced by adrenaline) of platelet aggregation caused by adenosinephosphate): 10 µM
- times less powerful than PHENTOLAMINE as an adrenaline antagonist (platelets [12]): 20 times
- IC50 (rabbit platelets): 100 µM
- aggregation effect induced by collagen (platelets [13]): inhibition
- latency phase preceding aggregation of platelets induced by collagen (platelets [13]): prolongation
- platelet aggregation caused by adenosine phosphate (platelets [14]): inhibits
- IC50 (platelets [15]; Oryctolagus cuniculus, Platelet, read-out: IC50, inhibition of release of carbon 14-marked 5-hydroxytryptamine induced by collagen): 1.8 µM
- times more powerful than aspirin, platelet release reaction (platelets [15]; collagen-induced release): 13 times
- aggregation of platelets induced by collagen (human platelets [16]): inhibits
